In ChEMBL document CHEMBL4602679, “Polyesterified Sesquiterpenoids from the Seeds of Celastrus paniculatus as Lifespan-Extending Agents for the Nematode Caenorhabditis elegans” (2020):

What was measured:
Caenorhabditis elegans [1] = assay: Induction of lifespan expansion in late L4 larval stage of Caenorhabditis elegans Bristol N2 assessed as survival time at 50 uM (reference value: 15.19 =/- 0.53 day); type: functional
Caenorhabditis elegans [2] = assay: Induction of lifespan expansion in late L4 larval stage of Caenorhabditis elegans Bristol N2 assessed as increase in survival time at 50 uM relative to control; type: functional

Structure (SMILES) | Survival (Caenorhabditis elegans [1]) [days] | survival at 50 µM (Caenorhabditis elegans [2]) [%]
CC(=O)OC[C@@]12[C@@H](OC(C)=O)CC[C@@H](C)[C@]13OC(C)(C)[C@H]([C@H](OC(C)=O)[C@H]2OC(=O)c1ccccc1)[C@H]3OC(C)=O | 17.77 | 17
CC(=O)OC[C@@]12[C@@H](OC(C)=O)CC[C@@H](C)[C@]13OC(C)(C)[C@H]([C@@H](OC(C)=O)[C@@H]2OC(=O)c1ccoc1)[C@H]3OC(C)=O | 16.83 | 11
CC(=O)OC[C@]12[C@@H](OC(=O)c3ccoc3)[C@@H](OC(C)=O)[C@@H]3C[C@]1(OC3(C)C)[C@H](C)C[C@@H](OC(C)=O)[C@@H]2OC(C)=O | 15.46 | –
CC(=O)OC[C@@]12[C@@H](OC(C)=O)CC[C@](C)(O)[C@]13OC(C)(C)[C@H]([C@H](OC(C)=O)[C@H]2OC(=O)c1ccoc1)[C@H]3OC(C)=O | 17.56 | 16
CC(=O)OC[C@@]12[C@@H](OC(C)=O)CC[C@@H](C)[C@@]13C[C@@H]([C@H](OC(C)=O)[C@@H]2OC(=O)c1ccoc1)C(C)(C)O3 | 16.38 | –
CC(=O)O[C@H]1CC[C@](C)(O)[C@]23OC(C)(C)[C@H]([C@H](OC(=O)c4ccoc4)[C@H](OC(=O)c4ccoc4)[C@]12CO)[C@H]3OC(C)=O | 18 | 18
CC(=O)OC[C@@]12[C@@H](OC(C)=O)CC[C@](C)(O)[C@]13OC(C)(C)[C@H]([C@H](OC(C)=O)[C@@H]2OC(=O)c1ccoc1)[C@H]3OC(C)=O | 17.67 | 16
CC(=O)OC[C@@]12[C@@H](OC(C)=O)CC[C@@H](C)[C@@]13C[C@@H]([C@H](OC(C)=O)[C@H]2OC(=O)c1ccoc1)C(C)(C)O3 | 17 | 12
CC(=O)OC[C@@]12[C@@H](OC(C)=O)CC[C@](C)(O)[C@]13OC(C)(C)[C@H]([C@H](OC(=O)c1ccoc1)[C@@H]2OC(=O)c1ccoc1)[C@H]3OC(C)=O | 17.39 | 14
CC(=O)OC[C@@]12[C@@H](OC(C)=O)CC[C@](C)(O)[C@]13OC(C)(C)[C@H]([C@@H](OC(C)=O)[C@@H]2OC(=O)c1ccoc1)[C@H]3OC(C)=O | 15.29 | –
